These results are taken from patent US7829665B2 (priority 2005, dated 2010).

The target of the test is T1, full-length NS3/NS4A-2 (HCV NS3 protease) (Hepatitis C virus genotype 1a, UniProt P27958).
T1 construct: Recombinant E. coli or Baculovirus full-length NS3 was diluted to 3.33 μM with assay buffer; made in house; host or cells: E. coli or baculovirus (BV) expression system
Description: NS3-NS4 protease assay / NS3 inhibition assay (RETS1 substrate, fluorescence kinetic read). It is filed as biochemical. The following applies: read-out: NS3-NS4 IC50. The method in brief:
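Ki values come from IC50 fits corrected via Ki=IC50/(1+[S]/Km), with Km 2.03 μM for E. coli and 1.74 μM for baculovirus full-length NS3. Enzyme (2 or 3 nM NS3, respectively, complexed with NS4A-2) sat with compound, top concentration 50 microM, for 10 min at room temperature. Cleavage of RETS1 (8 μM working solution) was then followed by fluorescence (335/495 nm) over 30 min.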

[1] abbreviates: recombinant E. coli or Baculovirus full-length NS3 with NS4A-2.

Structures are written as SMILES. pIC50: −log10 of the molar value. Like-named read-outs stand apart in the source and are kept apart here.

T1 sequence (P27958 1027-1657): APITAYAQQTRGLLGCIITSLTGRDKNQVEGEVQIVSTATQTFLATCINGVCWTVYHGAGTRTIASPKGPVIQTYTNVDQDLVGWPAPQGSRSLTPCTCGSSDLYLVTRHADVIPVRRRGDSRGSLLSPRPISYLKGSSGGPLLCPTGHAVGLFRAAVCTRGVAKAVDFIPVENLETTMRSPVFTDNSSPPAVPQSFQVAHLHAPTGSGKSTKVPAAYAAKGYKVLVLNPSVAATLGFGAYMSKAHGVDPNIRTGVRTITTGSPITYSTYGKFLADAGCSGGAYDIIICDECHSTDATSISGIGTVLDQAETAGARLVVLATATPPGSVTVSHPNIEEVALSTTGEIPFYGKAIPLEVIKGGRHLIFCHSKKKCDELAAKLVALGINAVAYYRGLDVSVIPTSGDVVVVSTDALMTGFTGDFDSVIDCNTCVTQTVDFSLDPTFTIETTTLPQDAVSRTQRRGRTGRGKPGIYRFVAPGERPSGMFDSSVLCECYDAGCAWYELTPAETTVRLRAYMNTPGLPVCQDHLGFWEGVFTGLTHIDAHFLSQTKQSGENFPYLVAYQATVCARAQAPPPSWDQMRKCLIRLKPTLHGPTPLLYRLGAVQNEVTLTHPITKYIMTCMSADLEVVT

With `COC(=O)c1cccc(CNC(=O)[C@@]23C[C@H]2/C=C\CCCCC[C@H](NC(=O)OC(C)(C)C)C(=O)N2CCC[C@H]2C(=O)N3)c1` [Compound 2321], the pIC50 – broadly, −log10 of the IC50, conventionally taken in molar units – (Table 22) was above 6.00.
On to `CC(C)(C)OC(=O)N[C@H]1CCCCC/C=C\[C@@H]2C[C@@]2(C(=O)NS(=O)(=O)Cc2ccc(Cl)cc2)NC(=O)[C@@H]2CCCN2C1=O` [Compound 2119], for which the pIC50 under setting [1] was above 6.00.
On the same count and under the same terms, the figure for `CCOC(=O)[C@@]12C[C@H]1/C=C\CCCCC[C@H](NC(=O)OC(C)(C)C)C(=O)N1C[C@H](OC(=O)N3Cc4ccc(OCCN(C)C)cc4C3)C[C@H]1C(=O)N2` [Compound 127] is above 5.00; for `COc1ccc(S(=O)(=O)NC(=O)[C@@]23C[C@H]2/C=C\CCCCC[C@H](NC(=O)OC(C)(C)C)C(=O)N2CCC[C@H]2C(=O)N3)cc1` [Compound 2133] it is above 5.00.
On to `CC[C@@H]1C[C@H]2C(=O)N[C@]3(C(=O)NS(=O)(=O)Nc4ccc(Cl)cc4)C[C@H]3/C=C\CCCCC[C@H](NC(=O)C3CC3)C(=O)N2C1` [Compound 429], for which the pIC50 under setting [1] was above 5.00.
`CC(C)(C)OC(=O)N[C@H]1CCCCC/C=C\[C@@H]2C[C@@]2(C(=O)NS(=O)(=O)c2cccc(C#N)c2)NC(=O)[C@@H]2CCCN2C1=O` [Compound 2152]: under setting [1], the pIC50 was above 5.00.
As to `Cc1ccc(NS(=O)(=O)NC(=O)[C@@]23C[C@H]2/C=C\CCCCC[C@H](NC(=O)OC(C)(C)C)C(=O)N2CCC[C@H]2C(=O)N3)cc1` [Compound 2243], the pIC50 under setting [1] was above 6.00.
As to `CS(=O)(=O)NC(=O)[C@@]12C[C@H]1/C=C\CCCCC[C@H](NC(=O)OC1CCCC1)C(=O)N1Cc3ccc(Oc4cccc(Cl)c4)cc3CC1C(=O)N2` (stereo partly drawn) [Compound 2003, Cyclopentyl (1aS,9S,19aR,Z)-15-(3-chlorophenoxy)-19a-(methylsulfonylcarbamoyl)-10,18-dioxo-1a,4,5,6,7,8,9,10,12,17,17a,18,19,19a-tetradecahydro-1H-11,14-diaza-bicyclo[13.1.0]hexadeca-1(15), 2-dieno[11,12-b]isoquinolin-9-ylcarbamate], under setting [1], the pIC50 was above 5.00.
Consider `CC(C)(C)OC(=O)NC1CCCCCCCC=CC2CC2(C(=O)NS(=O)(=O)c2cc(Cl)cc(Cl)c2)NC(=O)C2CCCN2C1=O` (stereo not drawn) [Compound 2108], for which the pIC50 under setting [1] is above 5.00.
As to `C[C@H](NC(=O)[C@@]12C[C@H]1/C=C\CCCCC[C@H](NC(=O)OC(C)(C)C)C(=O)N1CCC[C@H]1C(=O)N2)c1ccncc1` [Compound 501], the pIC50 under setting [1] is below 5.00.
Turning to `O=C(N[C@H]1CCCCC/C=C\[C@@H]2C[C@@]2(C(=O)NS(=O)(=O)C2CC2)NC(=O)[C@@H]2CCCN2C1=O)OC1CCCC1` [Compound 312], the pIC50 under setting [1] was above 6.00.
Regarding `CC(C)(C)OC(=O)N[C@H]1CCCCC/C=C\[C@@H]2C[C@@]2(C(=O)N[S@+]([O-])C(C)(C)C)NC(=O)[C@@H]2CCCN2C1=O` [Compound 2404], under setting [1], the pIC50 was above 6.00.
`CN(C)S(=O)(=O)NC(=O)[C@@]12C[C@H]1/C=C\CCCCC[C@H](NC(=O)OC(C)(C)C)C(=O)N1CCC[C@H]1C(=O)N2` [Compound 2202]: the pIC50 under setting [1] was above 5.00.
Same read-out and setting: the figure for `CC(C)(C)OC(=O)N[C@H]1CCCCC/C=C\[C@@H]2C[C@@]2(C(=O)NS(=O)(=O)NCCc2cccc(Cl)c2)NC(=O)[C@@H]2CCCN2C1=O` [Compound 411] is below 5.00; for `O=C(N[C@H]1CCCCC/C=C\[C@@H]2C[C@@]2(C(=O)NS(=O)(=O)c2ccccc2)NC(=O)C2Cc3cc(Oc4cccc(Cl)c4)ccc3CN2C1=O)OC1CCCC1` (stereo partly drawn) [Compound 2004, Cyclopentyl (1aS,9S,19aR,Z)-15-(3-chlorophenoxy)-10,18-dioxo-19a-(phenylsulfonylcarbamoyl)-1a,4,5,6,7,8,9,10,12,17,17a,18,19,19a-tetradecahydro-1H-11,14-diaza-bicyclo[13.1.0]hexadeca-1(15), 2-dieno[11,12-b]isoquinolin-9-ylcarbamate] it is above 6.00; for `CC(C)(C)OC(=O)N[C@H]1CCCCC/C=C\[C@@H]2C[C@@]2(C(=O)NCc2ccccn2)NC(=O)[C@@H]2CCCN2C1=O` [Compound 500] it is below 5.00.
`CC(C)(C)OC(=O)N[C@H]1CCCCC/C=C\[C@@H]2C[C@@]2(C(=O)NS(=O)(=O)NCCc2ccc3ccccc3c2)NC(=O)[C@@H]2CCCN2C1=O` [Compound 421]: the negative logarithm of the IC50 (pIC50) under setting [1] is below 5.00.
`CN(c1ccc(F)cc1)S(=O)(=O)NC(=O)[C@@]12C[C@H]1/C=C\CCCCC[C@H](NC(=O)OC(C)(C)C)C(=O)N1CCC[C@H]1C(=O)N2` [Compound 2229]: the pIC50 under setting [1] is above 5.00.
`CC(C)(C)OC(=O)N[C@H]1CCCCC/C=C\[C@@H]2C[C@@]2(C(=O)NS(=O)(=O)c2cccc(Br)c2)NC(=O)[C@@H]2CCCN2C1=O` [Compound 2112]: the pIC50 under setting [1] was above 5.00.
As for `CC(C)(C)OC(=O)N[C@H]1CCCCC/C=C\[C@@H]2C[C@@]2(C(=O)NCCc2ccccc2)NC(=O)[C@@H]2CCCN2C1=O` [Compound 2320], the pIC50 (Table 22) is above 7.00.
Consider `CCCNC(=O)[C@@]12C[C@H]1/C=C\CCCCC[C@H](NC1CCC1)C(=O)N1C[C@H](OC(=O)N3Cc4cccc(F)c4C3)C[C@H]1C(=O)N2` [Compound 623], for which the pIC50 under setting [1] was above 5.00.
Still for that read-out and setting: the figure for `O=C(N[C@H]1CCC(F)(F)CC/C=C\[C@@H]2C[C@@]2(C(=O)NS(=O)(=O)C2CC2)NC(=O)[C@@H]2C[C@@H](OC(=O)N3Cc4cccc(F)c4C3)CN2C1=O)OC1CCCC1` [Compound 1005] is above 7.00; for `N[C@H]1CCCCC/C=C\[C@@H]2C[C@@]2(C(=O)NS(=O)(=O)Nc2ccc(Cl)cc2)NC(=O)[C@@H]2C[C@@H](OC(=O)N3Cc4ccccc4C3)CN2C1=O` [Compound 203] it is above 6.00; for `CC(C)(C)OC(=O)N[C@H]1CCCCC/C=C\[C@@H]2C[C@@]2(C(=O)NS(=O)(=O)N2CCCC2)NC(=O)[C@@H]2CCCN2C1=O` [Compound 2207] it is above 5.00.
For `CN(C)CCNC(=O)[C@@]12C[C@H]1/C=C\CCCCC[C@H](NC(=O)OC(C)(C)C)C(=O)N1C[C@H](OC(=O)N3Cc4cccc(F)c4C3)C[C@H]1C(=O)N2` [Compound 608], the pIC50 under setting [1] is below 5.00.
Turning to `CC(C)(C)OC(=O)N[C@H]1CCCCC/C=C\[C@@H]2C[C@@]2(C(=O)NS(=O)(=O)NC2CCCCC2)NC(=O)[C@@H]2CCCN2C1=O` [Compound 2205], under setting [1], the pIC50 was above 6.00.
On the same count and under the same terms, next, `CC(C)(C)OC(=O)N[C@H]1CCCCC/C=C\[C@@H]2C[C@@]2(C(=O)NS(=O)(=O)c2ccc3ccccc3c2)NC(=O)[C@@H]2CCCN2C1=O` [Compound 2130]: above 5.00.
Take `CC(C)(C)CNC(=O)[C@@]12C[C@H]1/C=C\CCCCC[C@H](NC(=O)OC(C)(C)C)C(=O)N1CCC[C@H]1C(=O)N2` [Compound 2315]: the pIC50 (Table 22) was above 6.00.
As for `CC(C)(C)OC(=O)N[C@H]1CCCCC/C=C\[C@@H]2C[C@@]2(C(=O)NS(N)(=O)=O)NC(=O)[C@@H]2CCCN2C1=O` [Compound 2203], the pIC50 under setting [1] is above 6.00.
On to `CC(C)(C)OC(=O)N[C@H]1CCCCC/C=C\[C@@H]2C[C@@]2(C(=O)NS(=O)(=O)c2cnc(Cl)c(Br)c2)NC(=O)[C@@H]2CCCN2C1=O` [Compound 2154], for which, under setting [1], the pIC50 is above 5.00.
As for `Cc1noc(C)c1S(=O)(=O)NC(=O)[C@@]12C[C@H]1/C=C\CCCCC[C@H](NC(=O)OC(C)(C)C)C(=O)N1CCC[C@H]1C(=O)N2` [Compound 308], the pIC50 under setting [1] was below 5.00.
With `CCOc1ccc2sc(S(=O)(=O)NC(=O)[C@@]34C[C@H]3/C=C\CCCCC[C@H](NC(=O)OC(C)(C)C)C(=O)N3CCC[C@H]3C(=O)N4)nc2c1` [Compound 306], the pIC50 under setting [1] is below 5.00.
For the compound `CNS(=O)(=O)NC(=O)[C@@]12C[C@H]1/C=C\CCCCC[C@H](NC(=O)OC(C)(C)C)C(=O)N1CCC[C@H]1C(=O)N2` [Compound 2213], under setting [1], the pIC50 is above 5.00.
Turning to `CC(C)(C)OC(=O)N[C@H]1CCCCC/C=C\[C@@H]2C[C@@]2(C(=O)NS(=O)(=O)c2cccc(Cl)c2)NC(=O)[C@@H]2CCCN2C1=O` [Compound 2110], under setting [1], the negative-log IC50 (pIC50) was above 5.00.
Turning to `CC(C)(C)OC(=O)N[C@H]1CCCCC/C=C\[C@@H]2C[C@@]2(C(=O)NS(=O)(=O)NCc2ccccc2)NC(=O)[C@@H]2CCCN2C1=O` [Compound 2232], under setting [1], the pIC50 was above 5.00.
With `CN(c1ccccc1Cl)S(=O)(=O)NC(=O)[C@@]12C[C@H]1/C=C\CCCCC[C@H](NC(=O)OC(C)(C)C)C(=O)N1CCC[C@H]1C(=O)N2` [Compound 405], under setting [1], the pIC50 is above 5.00.
As for `CCOC(=O)[C@@]12C[C@H]1/C=C\CCCCC[C@H](N)C(=O)N1C[C@H](OC(=O)N3Cc4ccc(OCCNC(C)C)cc4C3)C[C@H]1C(=O)N2` [Compound 128], under setting [1], the pIC50 was below 5.00.
As to `CC(C)(C)OC(=O)N[C@H]1CCCCC/C=C\[C@@H]2C[C@@]2(C(=O)O)NC(=O)[C@@H]2C[C@@H](OC(=O)NCc3ccc(F)cn3)CN2C1=O` [Compound 151], the pIC50 under setting [1] is above 5.00.
In the case of `COc1cccc(S(=O)(=O)NC(=O)[C@@]23C[C@H]2/C=C\CCCCC[C@H](NC(=O)OC(C)(C)C)C(=O)N2CCC[C@H]2C(=O)N3)c1` [Compound 2116], the pIC50 under setting [1] is above 5.00.
Same read-out and setting: next, `CC(C)(C)OC(=O)N[C@H]1CCCCC/C=C\[C@@H]2C[C@@]2(C(=O)NS(=O)(=O)Nc2ccncc2)NC(=O)[C@@H]2CCCN2C1=O` [Compound 407]: below 5.00; `CC(C)(C)OC(=O)N[C@H]1CCCCC/C=C\[C@@H]2C[C@@]2(C(=O)NS(=O)(=O)N2CCOCC2)NC(=O)[C@@H]2CCCN2C1=O` [Compound 2204]: above 6.00.
With `CC(C)(C)OC(=O)N[C@H]1CCCCC/C=C\[C@@H]2C[C@@]2(C(=O)NS(=O)(=O)CCc2ccccc2)NC(=O)[C@@H]2CCCN2C1=O` [Compound 2127], under setting [1], the pIC50 is above 5.00.
